Experimental data from patent US20190365776A1, “THERAPEUTIC AGENT FOR OCULAR FUNDUS DISEASE” (KYUSHU UNIVERSITY, NATIONAL UNIVERSITY CORPORATION, priority 2013, published 2019).

Assays:
[1] = test system: mice CNV (Choroidal Neovascularization) model; assay: Mice CNV (choroidal neovascularization) model, laser photocoagulation; type: in vivo, C57BL/6JJcl mice; conditions: ocular instillation three times a day, day 0 to day 7, control 109177±26399
Protocol: The effectiveness of the compound 1 in a mice CNV model known as a model of age-related macular degeneration or the like was examined in the following manner.
Compound 1 solutions prepared in the same manner as in Example 1: 0.4% solution, 0.8% solution (instillation volume: 20 μL)
Test animals: C57BL/6JJcl mice (6- to 10-week old, sex: male, 11 to 12 mice per group)
The preparation of a CNV model and evaluation were performed with reference to a literature (e.g., J. Leukoc. Biol. 2003; 74: 25-32, or Am. J. Pathol. 1998; 153: 1641-1646). More specifically, each of the mice was given tropicamide by ocular instillation to cause mydriasis, anesthetized by intraperitoneal administration of 100 mg/kg of Ketalar and 10 mg/kg of Selactar, and subjected to photocoagulation at 4 spots per eye. The photocoagulation was performed by krypton laser irradiation (75-μm spot size, 0.1 seconds duration, 200 mW) with a slit-lamp delivery system using a cover glass as a contact lens. Test groups were a saline instillation group (control), a 0.4% compound 1 solution instillation group, and a 0.8% compound 1 solution instillation group. […] More specifically, a spot with bleeding or tissue destruction was excluded, the CNV volume of each spot adopted was calculated by NIS-Elements AR Version 4.13, and then an average value (μm^3) per eye was calculated.

[2] = test system: mice OIR (Oxygen-Induced Retinopathy) model; assay: Mice OIR (oxygen-induced retinopathy) model, flat-mounted retina; type: in vivo, C57BL/6JJcl mice; conditions: ocular instillation 20 μL three times a day, day 12 to day 17 after birth, flat mount
Protocol: The effectiveness of (S)-(−)-1-(4-fluoro-5-isoquinolinesulfonyl)-2-methyl-1,4-homopiperazine (compound 1) in a mice OIR model commonly used as a model of ischemic retinopathy such as diabetic retinopathy was examined in the following manner. Compound 1 solutions: 0.4% solution, 0.8% solution (instillation volume: 20 μL) Fasudil solution: 0.4% solution (instillation volume: 20 μL) Test animals: C57BL/6JJcl mice (sex: male, 8 to 14 mice per group) C57BL/6JJcl mice born on the same day were reared in a 75%-oxygen environment from day 7 after birth, and were then transferred to a normal indoor environment on day 12 after birth to start administration by ocular instillation. Test groups were a saline instillation group (control), a 0.4% compound 1 solution instillation group, a 0.8% compound 1 solution instillation group, and a 0.4% fasudil solution instillation group, and saline, the compound 1 solution, or the fasudil solution was administered by ocular instillation three times a day. On day 17 after birth, ischemic retinal areas (non-perfused areas) and neovascular areas were quantified for evaluation by flat-mounting or fluorescein fundus angiography. More specifically, 1 g/kg of pentobarbital (Nembutal) was administered intraperitoneally for euthanasia under deep anesthesia, and then both eyeballs were excised and fixed with 4% paraformaldehyde (PFA) at 37° C. for 1 hour, and the corneal limbus was circumferentially incised to remove the cornea and iris from the eyeball. Then, after fixation with 4% PFA at 37° C. for 1 hour, the lens, sclera, and choroid were removed, and the eye cup including the retina was isolated. Further, the retina was fixed with 4% PFA at 37° C. for 3 hours, washed with PBS three times (15 min per wash, 37° C.), dehydrated (methanol 50% 100%, 10 min per methanol treatment, 37° C.), washed with PBS three times (15 min per wash, 37° C.), and blocked with Blocking Buffer (1% BSA, 0.5% Triton-X in PBS) for 60 minutes (37° C.). Then, the retina was treated with a primary antibody (0.7% FITC-conjugates Anti-lectin Ab in PBS, 4° C., overnight) and washed with PBS three times (15 min per wash, 37° C.). Then, 4 to 6 cuts were radially made in the eye cup, and the flat-mounted retina was covered with Crystal Mount. Then, the image of the flat-mounted retina was taken with a fluorescence microscope (BZ-9000, KEYENCE Corp, Osaka, Japan), and the proportion of the non-perfused area to the entire retina and the proportion of the neovascular area to the entire retina were calculated by the following formulas in NIH image J software. The thus obtained values were converted to relative values by regarding the obtained values of the saline instillation group (control) as 100%, and statistical analysis was performed by Wilcoxon test. Non-perfused area=area of avascular region/area of entire retina Neovascular area=area of neovascular region/area of entire retina

## C[C@H]1CNCCCN1S(=O)(=O)c1cccc2cncc(F)c12 [compound 1, (S)-(−)-1-(4-fluoro-5-isoquinolinesulfonyl)-2-methyl-1,4-homopiperazine]
[1]; 0.4% solution
  CNV volume (mean±standard error, average per eye): 56408±9007 μm^3
[1]; 0.8% solution
  CNV volume (mean±standard error, average per eye): 88387±33678 μm^3
[2]; 0.4% solution
  relative value of the neovascular area (saline instillation group = 100%): 58.2%
  relative value of the non-perfused area (saline instillation group = 100%): 77.0%
[2]; 0.8% solution
  relative value of the neovascular area (saline instillation group = 100%): 52.7%
  relative value of the non-perfused area (saline instillation group = 100%): 58.1%
